PMC11673078, “DT-13 Mediates Ligand-Dependent Activation of PPARγ Response Elements In Vitro” (Biology, 2024)
pIC50: −log10 of the molar value.

Target: T1, PPARγ (Homo sapiens, UniProt P37231)
T1 construct: gene PPARG
T1 sequence (P37231 231-505 limits assumed): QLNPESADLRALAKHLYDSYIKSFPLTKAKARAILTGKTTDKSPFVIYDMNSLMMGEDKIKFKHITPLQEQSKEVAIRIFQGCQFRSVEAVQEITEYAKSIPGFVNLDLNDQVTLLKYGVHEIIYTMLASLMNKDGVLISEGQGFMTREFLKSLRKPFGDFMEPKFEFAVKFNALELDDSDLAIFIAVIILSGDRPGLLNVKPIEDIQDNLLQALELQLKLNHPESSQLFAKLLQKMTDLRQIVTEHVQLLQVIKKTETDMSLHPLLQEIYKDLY
Assay: fluorescence polarization competitive binding assay (PolarScreen PPARγ Green)

SMILES	pIC50
O=C(Nc1ccccc1)c1cc([N+](=O)[O-])ccc1Cl [GW9662]	7.65
CCCCC/C=C\C=C\C(O)CCCCCCCC(=O)O (centres unmarked) [9-hydroxyoctadecadienoic acid]	5.74
